Laboratory results reported in patent publication US8932597B2 (priority 2008, dated 2015).

System: anti-M2 human monoclonal antibody Z3G1
Type: binding

| Substance | Signal (peptides that bind to Z3G1) | Signal (peptides that show specific binding to Z3G1) |
| --- | --- | --- |
| 1458 (CLTEVETPIRLLTEVETPICTEVETPIRN; epitope peptide; MISC_FEATURE (1)..(1): C is an attachment site for a CLIP; MISC_FEATURE (10)..(10): R is an attachment site for a CLIP; MISC_FEATURE (11)..(11): L is an attachment site for a CLIP; MISC_FEATURE (29)..(29): N is an attachment site for a CLIP) [compound 1458] | 1756 |  |
| 1358 (CLLTEVECPIRNE; epitope peptide) [compound 1358] | 2326 |  |
| 1579 (SLLDEVETPIRNEWGCRCNDSSD; epitope peptide) [compound 1579] |  | 2276 |
| 1311 (MSLLTEVYTPIRNEWGCRCN; epitope peptide) [compound 1311] | 2181 |  |
| 1475 (CETPIRNEWGSLLTEVETPCEVETPIRNE; epitope peptide; MISC_FEATURE (1)..(1): C is an attachment site for a CLIP; MISC_FEATURE (10)..(10): G is an attachment site for a CLIP; MISC_FEATURE (11)..(11): S is an attachment site for a CLIP; MISC_FEATURE (29)..(29): E is an attachment site for a CLIP) [compound 1475] | 2642 |  |
| 1563 (DLLTEVETPIRNEWGCRCNDSSD; epitope peptide) [compound 1563] |  | 2320 |
| 1297 (MSLLTQVETPIRNEWGCRCN; epitope peptide) [compound 1297] | 1697 |  |
| 1282 (MSLLFEVETPIRNEWGCRCN; epitope peptide) [compound 1282] | 2581 |  |
| 1363 (SLLCEVETPICNE; epitope peptide) [compound 1363] | 1921 |  |
| 1389 (SLLCEVETPIRNCWG; epitope peptide) [compound 1389] | 2789 |  |
| 1258 (MLLLTEVETPIRNEWGCRCN; epitope peptide) [compound 1258] | 2091 |  |
| 1302 (MSLLTEVGTPIRNEWGCRCN; epitope peptide) [compound 1302] | 2789 |  |
| 1271 (MSLFTEVETPIRNEWGCRCN; epitope peptide) [compound 1271] | 2115 |  |
| 1331 (MSLLCEVCTPIRNE; epitope peptide) [compound 1331] | 2601 |  |
| 1356 (CLLTEVETPCRNE; epitope peptide) [compound 1356] | 1991 |  |
| 1446 (CETPIRNEWGLLTEVETPICLTEVETPIR; epitope peptide; MISC_FEATURE (1)..(1): C is an attachment site for a CLIP; MISC_FEATURE (10)..(10): G is an attachment site for a CLIP; MISC_FEATURE (11)..(11): L is an attachment site for a CLIP; MISC_FEATURE (29)..(29): R is an attachment site for a CLIP) [compound 1446] | 2367 |  |
| 1383 (CLLTEVECPIRNEWG; epitope peptide) [compound 1383] | 2157 |  |
| 1395 (SLLCEVCTPIRNEWG; epitope peptide) [compound 1395] | 2384 |  |
| 1562 (SLLCEVGSCLCEC; epitope peptide) [compound 1562] |  | 2614 |
| 1384 (CLLCEVETPIRNEWG; epitope peptide) [compound 1384] | 2388 |  |

| Substance | Signal (peptides that bind to Z3G1) | Signal (peptides that show specific binding to Z3G1) |
| --- | --- | --- |
| 1357 (CLLTEVETCIRNE; epitope peptide) [compound 1357] | 1661 |  |
| 1577 (SLDTEVETPIRNEWGCRCNDSSD; epitope peptide) [compound 1577] |  | 1505 |
| 1267 (MSILTEVETPIRNEWGCRCN; epitope peptide) [compound 1267] | 2582 |  |
| 1590 (SLLWEVETPIRNEWGCRCNDSSD; epitope peptide) [compound 1590] |  | 2221 |
| 1580 (SLLEEVETPIRNEWGCRCNDSSD; epitope peptide) [compound 1580] |  | 2420 |
| 1392 (SLLCEVETPCRNEWG; epitope peptide) [compound 1392] | 2465 |  |
| 1270 (MSLDTEVETPIRNEWGCRCN; epitope peptide) [compound 1270] | 2594 |  |
| 1570 (MLLTEVETPIRNEWGCRCNDSSD; epitope peptide) [compound 1570] |  | 2126 |
| 1558 (SCLCECGSLLCEV; epitope peptide) [compound 1558] |  | 1747 |
| 1298 (MSLLTTVETPIRNEWGCRCN; epitope peptide) [compound 1298] | 2699 |  |
| 1281 (MSLLEEVETPIRNEWGCRCN; epitope peptide) [compound 1281] | 2805 |  |
| 1443 (CTEVETPIRNLLTEVETPICLTEVETPIR; epitope peptide; MISC_FEATURE (1)..(1): C is an attachment site for a CLIP; MISC_FEATURE (10)..(10): N is an attachment site for a CLIP; MISC_FEATURE (11)..(11): L is an attachment site for a CLIP; MISC_FEATURE (29)..(29): R is an attachment site for a CLIP) [compound 1443] | 2213 |  |
| 1359 (CLLTEVCTPIRNE; epitope peptide) [compound 1359] | 1585 |  |
| 1445 (CVETPIRNEWLLTEVETPICLTEVETPIR; epitope peptide; MISC_FEATURE (1)..(1): C is an attachment site for a CLIP; MISC_FEATURE (10)..(10): W is an attachment site for a CLIP; MISC_FEATURE (11)..(11): L is an attachment site for a CLIP; MISC_FEATURE (29)..(29): R is an attachment site for a CLIP) [compound 1445] | 2280 |  |
| 1361 (SLLCEVETPIRNC; epitope peptide) [compound 1361] | 2460 |  |
| 1324 (MCLLCEVETPIRNE; epitope peptide) [compound 1324] | 2038 |  |
| 1565 (FLLTEVETPIRNEWGCRCNDSSD; epitope peptide) [compound 1565] |  | 1018 |
| 1283 (MSLLGEVETPIRNEWGCRCN; epitope peptide) [compound 1283] | 2717 |  |
| 1586 (SLLLEVETPIRNEWGCRCNDSSD; epitope peptide) [compound 1586] |  | 2344 |
| 1300 (MSLLTEVDTPIRNEWGCRCN; epitope peptide) [compound 1300] | 2856 |  |

| Substance | Signal (peptides that bind to Z3G1) | Signal (peptides that show specific binding to Z3G1) |
| --- | --- | --- |
| 1575 (WLLTEVETPIRNEWGCRCNDSSD; epitope peptide) [compound 1575] |  | 2180 |
| 1396 (SLLCEVETPIRNEWG; epitope peptide) [compound 1396] | 2384 |  |
| 1337 (MCLLTEVGMSLCTEV; epitope peptide) [compound 1337] | 2513 |  |
| 1348 (MSLCTEVGCSCLCEV; epitope peptide) [compound 1348] | 2001 |  |
| 1304 (MSLLTEVITPIRNEWGCRCN; epitope peptide) [compound 1304] | 2668 |  |
| 1587 (SLLNEVETPIRNEWGCRCNDSSD; epitope peptide) [compound 1587] |  | 2425 |
| 1336 (MSLLCEVGMSCLTEV; epitope peptide) [compound 1336] | 2846 |  |
| 1264 (MVLLTEVETPIRNEWGCRCN; epitope peptide) [compound 1264] | 2465 |  |
| 1482 (CETPIRNEWGLLTEVETPICEVETPIRNE; epitope peptide; MISC_FEATURE (1)..(1): C is an attachment site for a CLIP; MISC_FEATURE (10)..(10): G is an attachment site for a CLIP; MISC_FEATURE (11)..(11): L is an attachment site for a CLIP; MISC_FEATURE (29)..(29): E is an attachment site for a CLIP) [compound 1482] | 1648 |  |
| 1293 (MSLLSEVETPIRNEWGCRCN; epitope peptide) [compound 1293] | 2790 |  |
| 1390 (SLLCEVETPIRCEWG; epitope peptide) [compound 1390] | 2601 |  |
| 1589 (SLLVEVETPIRNEWGCRCNDSSD; epitope peptide) [compound 1589] |  | 1932 |
| 1291 (MSLLQEVETPIRNEWGCRCN; epitope peptide) [compound 1291] | 2792 |  |
| 1266 (MYLLTEVETPIRNEWGCRCN; epitope peptide) [compound 1266] | 1960 |  |
| 1386 (SLCCEVETPIRNEWG; epitope peptide) [compound 1386] | 1603 |  |
| 634 (SLLTEVETPIRNEWGCRANDSSD; epitope peptide) [compound 634] |  | 2265 |
| 1306 (MSLLTEVLTPIRNEWGCRCN; epitope peptide) [compound 1306] | 2714 |  |
| 1365 (SLLCEVETCIRNE; epitope peptide) [compound 1365] | 2305 |  |
| 1316 (CSLLCEVETPIRNE; epitope peptide) [compound 1316] | 2527 |  |
